Experiments:
[1] = Bulk density; type: physicochemical; details: Renazorb-014 (LDOC), second block
Procedure: Bulk density in accordance with the invention can be determined by standard methods.
Graduated Cylinder Tare Weight was determined to be 225 g. 75 grams of sample was sieved into the graduated cylinder. The Gross Weight was determined to be 299.4 g. The volume of this sample was measured to be 141 mL. Thus, the Bulk Density of the powder is: Bulk Density (g/cc)=(299.4−225)/141=74.4/141=0.5277 g/cc Rounding this value to two decimal places gives a final reported value of 0.53 g/cc. 9.2 RSD=(R1−R2)×100/R1 where: RSD=Relative Standard Deviation (%) R1 & R2=Result of individual repeat (g/cc) 9.3 SR=R×100/V where: SR=Standard Recovery (%) R=Result for Reference Standard (g/cc) V=Historical average for standard (g/cc)

[2] = Phosphate binding at buffered pH 4.5 in dissolution unit, ICP-OES (% reaction completion); details: Renazorb-014 (LDOC), second block; 4.5 pH @30 min
Source text: For each run, both the Renazorb-013 (LCH) and the Renazorb-014 (LDOC) were characterized. Renazorb-013 is important to characterize because its features (particularly physical features such as BET-Surface-Area, Particle Size Distribution, crystalline phase by XRD, bulk density) strongly impact the same critical features of Renazorb-014. The typical characterization suite of Renazorb-013 and Renazorb-014 includes BET-Surface-Area (BET-SA), Particle Size Distribution (PSD), crystalline phase by XRD, bulk density, chloride content, lanthanum content, carbon content. On top of this Renazorb-014 is tested for phosphate binding performance (4.5 pH @30 min). Assays such as La, C, Cl are typically fairly consistent and not under scrutiny.
The following procedure may be used to determine the phosphate binding kinetics/capacity in solutions at a buffered pH=4.5 for lanthanum dioxycarbonate.
Briefly, a heated, acetate buffered acidic solution, adjusted to a known pH and containing a known amount of phosphate is stirred constantly throughout the test in a dissolution unit. To this stirred solution is added a known amount of lanthanum compound at time=0. […] All samples are diluted in the proper matrix and analyzed for phosphorus using an Inductively Coupled Plasma instrument equipped with an Optical Emission spectrophotometer detector (ICP-OES). […]

[3] = BET surface area; type: physicochemical; details: Renazorb-014 (LDOC), second block
Source text: By “relatively greater” it is meant that if the processes of the '782 patent and those of the present invention were run under generally identical conditions but with, for example, ammonium carbonate or bicarbonate used instead of sodium carbonate, the surface area, as measured by BET or otherwise, of the LCH or lanthanum oxycarbonates of the present invention would be even higher than that resulting from the practice of the '782 patent. The ammonium carbonate process of the present invention should yield BET surface areas (SA) in the 1 to 100 m^2/g range for LCH. […] To this end, as used herein “relatively greater BET surface area” refers to the greater BET surface area of the LDOC compound of the present invention when compared to the respective compound in U.S. Pat. No. 7,588,782 when made using similar ingredients, and under similar conditions but using the process described in that patent. As noted above, both processes are capable of producing very fine particles/high surface area. Again without wishing to be bound by any particular theory of operation, it may be that the greater porosity of the materials resulting from the present invention may effectively increase the overall surface area (or more reactive surfaces) allowing for, inter alia, improved binding kinetics. This is predicated on the porosity of individual or primary particles, not aggregates. Thus, it is believed that the primary particles of the invention provide relatively greater porosity than would be measured for particles made in accordance with the '782 patent. […] Furthermore, “porosity” as used herein means cumulative adsorption pore volume determined using a static pressure surface area analyzer with nitrogen as the adsorbate and calculating the pore size by The Barrett, Joyner, and Halenda (BJH) method (Barrett E. P., Loyner L. G. and Halenda P. P., The determination of pore volume and area distributions in porous substances. I. Computations from nitrogen isotherms, J. Am. Chem. Soc. 73 (1951) pp. 373-380).
As contemplated herein, BET surface area of the lanthanum compounds disclosed herein may be determined as provided in U.S. Pat. No. 7,588,782.

[4] = Laser particle size (Coulter LS230), aggregate D10/D50/D90 by volume; type: physicochemical; details: Renazorb-014 (LDOC), second block
Source text: Aggregate size as described herein is either determined by scanning electron microscopy (SEM) or laser diffraction on a Coulter LS230. […] But these appear more aggregated.
Laser particle size data can be produced using, for example, a LS230 Laser Particle Size Analyzer manufactured by Coulter.
Average the runs using the LS230 software and have the software calculate the desired volume D results (i.e. for D1, D10, D50, D90, and D99).
The Refractive Index (RI) of a solid is required to perform an accurate laser PSD analysis for particles under 1 μm. The RI of the test materials were not listed in literature at the time this method was developed. […] Therefore an RI of 2.1 was chosen.

O=C([O-])[O-].[La+3].[La+3].[O-2].[O-2] [Batch 110508, lanthanum dioxycarbonate]
Bulk Density [1]: 0.56 g/cc
Po4 binding @4.5 pH (rxn comp. %) [2]: 92%
Surface Area [3]: 16.7 m^2/g
D10 Sonicated SOP-QC-GMP-2402 [4]: 6.6 um
D50 Sonicated SOP-QC-GMP-2402 [4]: 50 um
D90 Sonicated SOP-QC-GMP-2402 [4]: 151 um

— patent US10350240B2, “Lanthanum carbonate hydroxide, lanthanum oxycarbonate and methods of their manufacture and use” (Spectrum Pharmaceuticals, Inc., priority 2010, dated 2019)
